Measured values from PubChem BioAssay AID1963851 (Molecular Pharmacology Branch, DTP, NCI, 2024).

System: 188146-221-R-J1-PDC complex spheroid viability
Experiment: Anticancer human tumor 188146-221-R-J1-PDC patient-derived colon adenocarcinoma cell line growth inhibition [POLQ]
Settings: for IC50: curve of first compound; for viability, T/C: stronger effect = lower value
Summary of the method: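 PDC + HUVEC + MSC complex spheroids; POLQ inhibitors ± partner drugs; top conc. at/near clinical Cmax, else 10 microM (SN-38 1 microM), half-log dilutions; 37 degrees C, 5% CO2.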

[1] = second compound 0.0316 µM, first compound 0.0316 µM
[2] = second compound 0.0316 µM, first compound 0.1 µM
[3] = second compound 0.0316 µM, first compound 0.316 µM
[4] = second compound 0.0316 µM, first compound 1 µM
[5] = second compound 0.1 µM, first compound 0.0316 µM
[6] = second compound 0.1 µM, first compound 0.1 µM
[7] = second compound 0.1 µM, first compound 0.316 µM
[8] = second compound 0.1 µM, first compound 1 µM
[9] = second compound 0.316 µM, first compound 0.0316 µM
[10] = second compound 0.316 µM, first compound 0.1 µM
[11] = second compound 0.316 µM, first compound 0.316 µM
[12] = second compound 0.316 µM, first compound 1 µM
[13] = second compound 1 µM, first compound 0.0316 µM
[14] = second compound 1 µM, first compound 0.1 µM
[15] = second compound 1 µM, first compound 0.316 µM
[16] = second compound 1 µM, first compound 1 µM
[17] = second compound 3.16 µM, first compound 0.0316 µM
[18] = second compound 3.16 µM, first compound 0.1 µM
[19] = second compound 3.16 µM, first compound 0.316 µM
[20] = second compound 3.16 µM, first compound 1 µM
[21] = second compound 10 µM, first compound 0.0316 µM
[22] = second compound 10 µM, first compound 0.1 µM
[23] = second compound 10 µM, first compound 0.316 µM
[24] = second compound 10 µM, first compound 1 µM
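Also: spheroids exposed to compounds for seven days.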
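For viability, T/C in this document: 100% = DMSO vehicle control viability.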

## CNCc1ccc(-c2[nH]c3cc(F)cc4c3c2CCNC4=O)cc1 + Nc1ccc(C#CCN(C(=O)Cc2ncc(C(F)(F)F)cc2C(F)(F)F)c2ccc(F)cc2)nn1
Second compound 0.0316 µM
  IC50: > 10000 nM
Second compound 0.1 µM
  IC50: > 10000 nM
Second compound 0.316 µM
  IC50: > 10000 nM
Second compound 1 µM
  IC50: > 10000 nM
Second compound 3.16 µM
  IC50: > 10000 nM
Second compound 10 µM
  IC50: > 10000 nM
[1]
  viability, T/C: 114%
[2]
  viability, T/C: 107%
[3]
  viability, T/C: 109%
[4]
  viability, T/C: 106%
Second compound 0.0316 µM, first compound 3.16 µM
  viability, T/C: 103%
Second compound 0.0316 µM, first compound 10 µM
  viability, T/C: 120%
[5]
  viability, T/C: 111%
[6]
  viability, T/C: 104%
[7]
  viability, T/C: 100%
[8]
  viability, T/C: 113%
Second compound 0.1 µM, first compound 3.16 µM
  viability, T/C: 108%
Second compound 0.1 µM, first compound 10 µM
  viability, T/C: 116%
[9]
  viability, T/C: 114%
[10]
  viability, T/C: 100%
[11]
  viability, T/C: 85.3%
[12]
  viability, T/C: 110%
Second compound 0.316 µM, first compound 3.16 µM
  viability, T/C: 123%
Second compound 0.316 µM, first compound 10 µM
  viability, T/C: 119%
[13]
  viability, T/C: 106%
[14]
  viability, T/C: 99.2%
[15]
  viability, T/C: 93.5%
[16]
  viability, T/C: 111%
Second compound 1 µM, first compound 3.16 µM
  viability, T/C: 104%
Second compound 1 µM, first compound 10 µM
  viability, T/C: 100%
[17]
  viability, T/C: 102%
[18]
  viability, T/C: 94.7%
[19]
  viability, T/C: 99.5%
[20]
  viability, T/C: 109%
Second compound 3.16 µM, first compound 3.16 µM
  viability, T/C: 110%
Second compound 3.16 µM, first compound 10 µM
  viability, T/C: 103%
[21]
  viability, T/C: 114%
[22]
  viability, T/C: 115%
[23]
  viability, T/C: 112%
[24]
  viability, T/C: 108%
Second compound 10 µM, first compound 3.16 µM
  viability, T/C: 120%
Second compound 10 µM, first compound 10 µM
  viability, T/C: 130%

## C=CCn1c(=O)c2cnc(Nc3ccc(N4CCN(C)CC4)cc3)nc2n1-c1cccc(C(C)(C)O)n1 + Cc1cccc(N(C)C(=O)C2C(O)CCN2c2nc(C)cc(C(F)(F)F)c2C#N)c1
Second compound 0.0316 µM
  IC50: > 1000 nM
Second compound 0.1 µM
  IC50: > 1000 nM
Second compound 0.316 µM
  IC50: > 1000 nM
Second compound 1 µM
  IC50: > 1000 nM
Second compound 3.16 µM
  IC50: > 1000 nM
Second compound 10 µM
  IC50: 754 nM
Second compound 0.0316 µM, first compound 0.00316 µM
  viability, T/C: 109%
Second compound 0.0316 µM, first compound 0.01 µM
  viability, T/C: 113%
[1]
  viability, T/C: 104%
[2]
  viability, T/C: 105%
[3]
  viability, T/C: 103%
[4]
  viability, T/C: 60.9%
Second compound 0.1 µM, first compound 0.00316 µM
  viability, T/C: 112%
Second compound 0.1 µM, first compound 0.01 µM
  viability, T/C: 109%
[5]
  viability, T/C: 119%
[6]
  viability, T/C: 114%
[7]
  viability, T/C: 115%
[8]
  viability, T/C: 51.5%
Second compound 0.316 µM, first compound 0.00316 µM
  viability, T/C: 92.3%
Second compound 0.316 µM, first compound 0.01 µM
  viability, T/C: 88.7%
[9]
  viability, T/C: 105%
[10]
  viability, T/C: 107%
[11]
  viability, T/C: 110%
[12]
  viability, T/C: 59.5%
Second compound 1 µM, first compound 0.00316 µM
  viability, T/C: 109%
Second compound 1 µM, first compound 0.01 µM
  viability, T/C: 98.5%
[13]
  viability, T/C: 105%
[14]
  viability, T/C: 99%
[15]
  viability, T/C: 112%
[16]
  viability, T/C: 57.8%
Second compound 3.16 µM, first compound 0.00316 µM
  viability, T/C: 90.6%
Second compound 3.16 µM, first compound 0.01 µM
  viability, T/C: 101%
[17]
  viability, T/C: 114%
[18]
  viability, T/C: 102%
[19]
  viability, T/C: 89.7%
[20]
  viability, T/C: 56.9%
Second compound 10 µM, first compound 0.00316 µM
  viability, T/C: 90.7%
Second compound 10 µM, first compound 0.01 µM
  viability, T/C: 92.2%
[21]
  viability, T/C: 104%
[22]
  viability, T/C: 90.4%
[23]
  viability, T/C: 97%
[24]
  viability, T/C: 35.4%

## CC(=O)O[C@H]1C(=O)[C@@]2(C)[C@H]([C@H](OC(=O)c3ccccc3)[C@]3(O)C[C@H](OC(=O)[C@H](O)[C@@H](NC(=O)c4ccccc4)c4ccccc4)C(C)=C1C3(C)C)[C@]1(OC(C)=O)CO[C@@H]1C[C@@H]2O + COC1C(OC(N)=O)C(O)C(Oc2ccc3c(O)c(NC(=O)c4ccc(O)c(CC=C(C)C)c4)c(=O)oc3c2C)OC1(C)C
Second compound 0.0316 µM
  IC50: 16.4 nM
Second compound 0.1 µM
  IC50: 17.2 nM
Second compound 0.316 µM
  IC50: 16.8 nM
Second compound 1 µM
  IC50: 14.4 nM
Second compound 3.16 µM
  IC50: 17.2 nM
Second compound 10 µM
  IC50: 16 nM
Second compound 0.0316 µM, first compound 0.00949 µM
  viability, T/C: 76%
Second compound 0.0316 µM, first compound 0.03 µM
  viability, T/C: 21%
Second compound 0.0316 µM, first compound 0.0949 µM
  viability, T/C: 10.8%
Second compound 0.0316 µM, first compound 0.3 µM
  viability, T/C: 10.2%
Second compound 0.0316 µM, first compound 0.949 µM
  viability, T/C: 10.4%
Second compound 0.0316 µM, first compound 3 µM
  viability, T/C: 9.91%
Second compound 0.1 µM, first compound 0.00949 µM
  viability, T/C: 80.1%
Second compound 0.1 µM, first compound 0.03 µM
  viability, T/C: 21.7%
Second compound 0.1 µM, first compound 0.0949 µM
  viability, T/C: 12.2%
Second compound 0.1 µM, first compound 0.3 µM
  viability, T/C: 9.8%
Second compound 0.1 µM, first compound 0.949 µM
  viability, T/C: 8.82%
Second compound 0.1 µM, first compound 3 µM
  viability, T/C: 9.35%
Second compound 0.316 µM, first compound 0.00949 µM
  viability, T/C: 75.9%
Second compound 0.316 µM, first compound 0.03 µM
  viability, T/C: 24.3%
Second compound 0.316 µM, first compound 0.0949 µM
  viability, T/C: 9.19%
Second compound 0.316 µM, first compound 0.3 µM
  viability, T/C: 11.9%
Second compound 0.316 µM, first compound 0.949 µM
  viability, T/C: 9.74%
Second compound 0.316 µM, first compound 3 µM
  viability, T/C: 11.2%
Second compound 1 µM, first compound 0.00949 µM
  viability, T/C: 66.3%
Second compound 1 µM, first compound 0.03 µM
  viability, T/C: 21.7%
Second compound 1 µM, first compound 0.0949 µM
  viability, T/C: 10.2%
Second compound 1 µM, first compound 0.3 µM
  viability, T/C: 10%
Second compound 1 µM, first compound 0.949 µM
  viability, T/C: 10.6%
Second compound 1 µM, first compound 3 µM
  viability, T/C: 9.98%
Second compound 3.16 µM, first compound 0.00949 µM
  viability, T/C: 84%
Second compound 3.16 µM, first compound 0.03 µM
  viability, T/C: 18.2%
Second compound 3.16 µM, first compound 0.0949 µM
  viability, T/C: 12.6%
Second compound 3.16 µM, first compound 0.3 µM
  viability, T/C: 8.24%
Second compound 3.16 µM, first compound 0.949 µM
  viability, T/C: 11.4%
Second compound 3.16 µM, first compound 3 µM
  viability, T/C: 10.8%
Second compound 10 µM, first compound 0.00949 µM
  viability, T/C: 75.6%
Second compound 10 µM, first compound 0.03 µM
  viability, T/C: 19.2%
Second compound 10 µM, first compound 0.0949 µM
  viability, T/C: 11.2%
Second compound 10 µM, first compound 0.3 µM
  viability, T/C: 9.41%
Second compound 10 µM, first compound 0.949 µM
  viability, T/C: 12.8%
Second compound 10 µM, first compound 3 µM
  viability, T/C: 11.8%
